Values quoted from earlier work as cited in patent US20250332127A1, “SYSTEM AND METHOD FOR DELIVERING THERAPEUTIC AGENTS TO THE UTERINE CAVITY” (priority 2021, published 2025).
Read-outs that look alike come from different tables or passages of the source.

Row | viscosity (at 20 degrees of Celsius) [centipoise] | Compound | viscosity (trichloroacetic acid as used as therapeutic agent) [centipoise]
1 | 0.0147 | O=C=O [CO2] | 
2 |  | O=C(O)C(Cl)(Cl)Cl [trichloroacetic acid] | ≥ 1
